Experimental data as given in patent US9409905B2, “Antibacterial compounds and methods for use” (PTC THERAPEUTICS, INC., priority 2011, dated 2016).
Values after ≈ are worked out from the molar mass of the structure shown.

How the values were obtained:
[1] = tested on: Pseudomonas aeruginosa (P. aeruginosa) 27853; test: Antibacterial activity, MIC (Table 5); type: cell-based; conditions: P. aeruginosa 27853, read-out: MIC, 27853
Summary of the method: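 Compounds are serially diluted in broth and inoculated with the organism. Growth is then inspected macroscopically, and the lowest concentration showing none is taken as the MIC (μg/mL).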

K. pneumoniae MXX1232 = test: Antibacterial activity, MIC, resistant strain (Table 4); type: cell-based; conditions: Klebsiella pneumoniae, MXX1232; resistant K. pneumoniae MMX1232, multi-drug resistant clinical isolate; read-out: MIC, MMX1232
From the text: (§1) The antibacterial activity from a microbroth dilution method may be presented as the minimum inhibitory concentration (MIC in μg/mL). The MIC value is the lowest concentration of drug which prevents macroscopically visible growth under test conditions.
(§2) Antibacterial activity of test compounds against the Gram-negative Acinetobacter baumannii (A. baumannii) BAA747 and Klebsiella pneumoniae (K. pneumoniae) 35657 bacterium and the resistant A. baumannii MXX2240 and K. pneumoniae MXX1232 strains are shown in Table 4. The MMX strains are multi-drug resistant clinical isolates.

A. baumannii MXX2240 = test: as above; type: cell-based; conditions: Acinetobacter baumannii, MXX2240; resistant A. baumannii MMX2240, multi-drug resistant clinical isolate; read-out: MIC, MMX2240
From the text: as §1, §2

E. coli LZ3111 = test: Antibacterial activity, MIC, quinolone resistant strain (Table 2); type: cell-based; conditions: Escherichia coli, LZ3111, read-out: MIC LZ3111
Summary of the method: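 Strain carries mutations conferring high-level quinolone resistance; tested by microbroth dilution, MIC recorded in μg/mL as lowest concentration preventing visible growth.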

[2] = tested on: Staphylococcus aureus (S. aureus) 29213; test: Antibacterial activity, microbroth dilution MIC (Table 1); type: cell-based; conditions: microbroth dilution, Gram-positive S. aureus 29213, read-out: MIC, 29213
Summary of the method: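 Broth microdilution against S. aureus 29213, E. coli 25922 and hypersensitive E. coli BAS849. MIC in μg/mL is the lowest drug concentration preventing macroscopically visible growth under test conditions.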

[3] = tested on: Escherichia coli (E. coli) BAS849; test: as above; type: cell-based; conditions: microbroth dilution, super sensitive Gram-negative E. coli BAS849, read-out: MIC, BAS849
Summary of the method: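 Potency is reported as minimum inhibitory concentration in μg/mL, determined by broth microdilution as the lowest level of compound that stops growth visible to the eye.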

[4] = tested on: Klebsiella pneumoniae (K. pneumoniae) 35657; test: Antibacterial activity, MIC (Table 4); type: cell-based; conditions: K. pneumoniae 35657, read-out: MIC, 35657
Summary of the method: (§3)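 MIC in μg/mL by microbroth dilution, scored as the lowest level that suppresses visible growth.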

[5] = tested on: Acinetobacter baumannii (A. baumannii) BAA747; test: Antibacterial activity, MIC (Table 4); type: cell-based; conditions: A. baumannii BAA747, read-out: MIC, BAA747
Summary of the method: as §3

E. coli 25922 = test: Antibacterial activity, microbroth dilution MIC (Table 1); type: cell-based, Escherichia coli; conditions: Escherichia coli; microbroth dilution; control Gram-negative E. coli 25922 strain; read-out: MIC, 25922
Summary of the method: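 In a microbroth dilution test, the minimum inhibitory concentration was defined as the lowest compound level preventing growth seen by eye, and was given in μg/mL.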

SMILES: Cc1c(-c2ccc3c(c2)cc(CNCCO)n3C)[nH]c(=O)c(C(=O)O)c1O [Cpd 350, 4-hydroxy-6-(2-((2-hydroxyethylamino)methyl)-1-methyl-1H-indol-5-yl)-5-methyl-2-oxo-1,2-dihydropyridine-3-carboxylic acid]
- MIC [1]: 12.5 to 150 µg/mL (≈ 33.7 to 404 µM)
- MIC (K. pneumoniae MXX1232): 12.5 to 150 µg/mL (≈ 33.7 to 404 µM)
- MIC (A. baumannii MXX2240): 12.5 to 150 µg/mL (≈ 33.7 to 404 µM)
- MIC (E. coli LZ3111): 3.5 to 12.5 µg/mL (≈ 9.42 to 33.7 µM)
- MIC [2]: 12.5 to 150 µg/mL (≈ 33.7 to 404 µM)
- MIC [3]: 3.5 to 12.5 µg/mL (≈ 9.42 to 33.7 µM)
- MIC [4]: 12.5 to 150 µg/mL (≈ 33.7 to 404 µM)
- MIC [5]: 12.5 to 150 µg/mL (≈ 33.7 to 404 µM)
- MIC (E. coli 25922): 12.5 to 150 µg/mL (≈ 33.7 to 404 µM)

SMILES: Cc1c(-c2ccc3c(c2)cc(CNC(C)(C)C)n3C)[nH]c(=O)c(C(=O)O)c1O [Cpd 351, 6-(2-((tert-butylamino)methyl)-1-methyl-1H-indol-5-yl)-4-hydroxy-5-methyl-2-oxo-1,2-dihydropyridine-3-carboxylic acid]
- MIC [1]: 12.5 to 150 µg/mL (≈ 32.6 to 391 µM)
- MIC (K. pneumoniae MXX1232): 12.5 to 150 µg/mL (≈ 32.6 to 391 µM)
- MIC (A. baumannii MXX2240): 1 to 3.5 µg/mL (≈ 2.61 to 9.13 µM)
- MIC (E. coli LZ3111): 3.5 to 12.5 µg/mL (≈ 9.13 to 32.6 µM)
- MIC [2]: 12.5 to 150 µg/mL (≈ 32.6 to 391 µM)
- MIC [3]: < 1 µg/mL
- MIC [4]: 1 to 3.5 µg/mL (≈ 2.61 to 9.13 µM)
- MIC [5]: < 1 µg/mL
- MIC (E. coli 25922): 1 to 3.5 µg/mL (≈ 2.61 to 9.13 µM)

SMILES: CCCNCc1cc2cc(-c3[nH]c(=O)c(C(=O)O)c(O)c3C)ccc2n1C [Cpd 352, 4-hydroxy-5-methyl-6-(1-methyl-2-((propylamino)methyl)-1H-indol-5-yl)-2-oxo-1,2-dihydropyridine-3-carboxylic acid]
- MIC [1]: 12.5 to 150 µg/mL (≈ 33.8 to 406 µM)
- MIC (K. pneumoniae MXX1232): 12.5 to 150 µg/mL (≈ 33.8 to 406 µM)
- MIC (A. baumannii MXX2240): 1 to 3.5 µg/mL (≈ 2.71 to 9.47 µM)
- MIC (E. coli LZ3111): < 1 µg/mL
- MIC [2]: 12.5 to 150 µg/mL (≈ 33.8 to 406 µM)
- MIC [3]: < 1 µg/mL
- MIC [4]: 1 to 3.5 µg/mL (≈ 2.71 to 9.47 µM)
- MIC [5]: 3.5 to 12.5 µg/mL (≈ 9.47 to 33.8 µM)
- MIC (E. coli 25922): 3.5 to 12.5 µg/mL (≈ 9.47 to 33.8 µM)

SMILES: Cc1c(-c2ccc3c(c2)cc(CNCC(C)C)n3C)[nH]c(=O)c(C(=O)O)c1O [Cpd 353, 4-hydroxy-6-(2-((isobutylamino)methyl)-1-methyl-1H-indol-5-yl)-5-methyl-2-oxo-1,2-dihydropyridine-3-carboxylic acid]
- MIC [1]: 12.5 to 150 µg/mL (≈ 32.6 to 391 µM)
- MIC (K. pneumoniae MXX1232): 12.5 to 150 µg/mL (≈ 32.6 to 391 µM)
- MIC (A. baumannii MXX2240): < 1 µg/mL
- MIC (E. coli LZ3111): 1 to 3.5 µg/mL (≈ 2.61 to 9.13 µM)
- MIC [2]: 12.5 to 150 µg/mL (≈ 32.6 to 391 µM)
- MIC [3]: < 1 µg/mL
- MIC [4]: 3.5 to 12.5 µg/mL (≈ 9.13 to 32.6 µM)
- MIC [5]: 3.5 to 12.5 µg/mL (≈ 9.13 to 32.6 µM)
- MIC (E. coli 25922): 3.5 to 12.5 µg/mL (≈ 9.13 to 32.6 µM)

SMILES: Cc1c(-c2ccc3c(c2)cc(CNC2CC2)n3C)[nH]c(=O)c(C(=O)O)c1O [Cpd 355, 6-(2-((cyclopropylamino)methyl)-1-methyl-1H-indol-5-yl)-4-hydroxy-5-methyl-2-oxo-1,2-dihydropyridine-3-carboxylic acid]
- MIC [1]: 12.5 to 150 µg/mL (≈ 34 to 408 µM)
- MIC (K. pneumoniae MXX1232): 12.5 to 150 µg/mL (≈ 34 to 408 µM)
- MIC (A. baumannii MXX2240): < 1 µg/mL
- MIC (E. coli LZ3111): < 1 µg/mL
- MIC [2]: 12.5 to 150 µg/mL (≈ 34 to 408 µM)
- MIC [3]: < 1 µg/mL
- MIC [4]: 3.5 to 12.5 µg/mL (≈ 9.53 to 34 µM)
- MIC [5]: 3.5 to 12.5 µg/mL (≈ 9.53 to 34 µM)
- MIC (E. coli 25922): 3.5 to 12.5 µg/mL (≈ 9.53 to 34 µM)

SMILES: Cc1c(-c2ccc3c(c2)cc(CNC2(C)CC2)n3C)[nH]c(=O)c(C(=O)O)c1O [Cpd 356, 4-hydroxy-5-methyl-6-(1-methyl-2-((1-methylcyclopropylamino)methyl)-1H-indol-5-yl)-2-oxo-1,2-dihydropyridine-3-carboxylic acid]
- MIC [1]: 12.5 to 150 µg/mL (≈ 32.8 to 393 µM)
- MIC (K. pneumoniae MXX1232): 12.5 to 150 µg/mL (≈ 32.8 to 393 µM)
- MIC (A. baumannii MXX2240): < 1 µg/mL
- MIC (E. coli LZ3111): < 1 µg/mL
- MIC [2]: 3.5 to 12.5 µg/mL (≈ 9.18 to 32.8 µM)
- MIC [3]: < 1 µg/mL
- MIC [4]: 3.5 to 12.5 µg/mL (≈ 9.18 to 32.8 µM)
- MIC [5]: < 1 µg/mL
- MIC (E. coli 25922): 3.5 to 12.5 µg/mL (≈ 9.18 to 32.8 µM)

SMILES: CCN(CC)Cc1cc2cc(-c3[nH]c(=O)c(C(=O)O)c(O)c3C)ccc2n1C [Cpd 357, 6-(2-((diethylamino)methyl)-1-methyl-1H-indol-5-yl)-4-hydroxy-5-methyl-2-oxo-1,2-dihydropyridine-3-carboxylic acid]
- MIC [1]: 12.5 to 150 µg/mL (≈ 32.6 to 391 µM)
- MIC (K. pneumoniae MXX1232): 12.5 to 150 µg/mL (≈ 32.6 to 391 µM)
- MIC (A. baumannii MXX2240): 3.5 to 12.5 µg/mL (≈ 9.13 to 32.6 µM)
- MIC (E. coli LZ3111): 1 to 3.5 µg/mL (≈ 2.61 to 9.13 µM)
- MIC [2]: 12.5 to 150 µg/mL (≈ 32.6 to 391 µM)
- MIC [3]: < 1 µg/mL
- MIC [4]: 3.5 to 12.5 µg/mL (≈ 9.13 to 32.6 µM)
- MIC [5]: 3.5 to 12.5 µg/mL (≈ 9.13 to 32.6 µM)
- MIC (E. coli 25922): 3.5 to 12.5 µg/mL (≈ 9.13 to 32.6 µM)

SMILES: Cc1c(-c2ccc3c(c2)cc(CN)n3C)[nH]c(=O)c(C(=O)O)c1O [Cpd 358, 6-(2-(aminomethyl)-1-methyl-1H-indol-5-yl)-4-hydroxy-5-methyl-2-oxo-1,2-dihydropyridine-3-carboxylic acid]
- MIC [1]: 12.5 to 150 µg/mL (≈ 38.2 to 458 µM)
- MIC (K. pneumoniae MXX1232): 12.5 to 150 µg/mL (≈ 38.2 to 458 µM)
- MIC (A. baumannii MXX2240): 3.5 to 12.5 µg/mL (≈ 10.7 to 38.2 µM)
- MIC (E. coli LZ3111): 1 to 3.5 µg/mL (≈ 3.05 to 10.7 µM)
- MIC [2]: 12.5 to 150 µg/mL (≈ 38.2 to 458 µM)
- MIC [3]: 1 to 3.5 µg/mL (≈ 3.05 to 10.7 µM)
- MIC [4]: 1 to 3.5 µg/mL (≈ 3.05 to 10.7 µM)
- MIC [5]: 12.5 to 150 µg/mL (≈ 38.2 to 458 µM)
- MIC (E. coli 25922): 3.5 to 12.5 µg/mL (≈ 10.7 to 38.2 µM)
